The source of these data is PubChem BioAssay AID1919013 (Molecular Pharmacology Branch, DTP, NCI, 2023).

This experiment has as its system LG0703-F498-PDC complex spheroid growth. Put plainly: Anticancer human tumor LG0703-F498-PDC patient-derived lung adenocarcinoma cell line growth inhibition [AhR]. The following applies: for viability, T/C: stronger effect = lower value; for IC50: curve of compound. The source says:
Multicellular complex tumor spheroid response to aryl hydrocarbon receptor antagonists in combination with a variety of drugs and investigational agents in selected tumor cell lines
The current study was undertaken to assess response to aryl hydrocarbon receptor antagonists in combination with standard-of-care drugs and investigational agents in solid tumor complex spheroid models. Complex spheroids include a stromal component modeled by human endothelial cells (HUVEC) and fibroblasts modeled by human mesenchymal stem cells (MSCs). The concentration ranges selected for each drug and investigational agent were based upon clinically achievable concentrations if the clinical Cmax of the agent was known.
Compounds. The drugs and investigational agents: BAY 2416964 (NSC825713), GNF351 (NSC835774), CH-223191 (NSC835775), CPI-455 (NSC825282), aza-TdCyd (NSC777586), decitabine (NSC127716), belinostat (NSC758774), entinostat (NSC756642), pevonedistat (NSC761192), tazemetostat (NSC777109), talazoparib (NSC765396), olaparib (NSC753686), selinexor (NSC780203), nedisertib (M3814, NSC802822), bortezomib (NSC756655), venetoclax (NSC766270), doxorubicin (NSC123127), elimusertib (BAY189344, NSC800525), ceralasertib (AZD6738, NSC777638), TAK-243 (NSC785004), alisertib (NSC759677), etoposide (NSC141540), topotecan (NSC609699), eribulin (NSC707389), gemcitabine (NSC613327), carboplatin (NSC241240), cisplatin (NSC119875), and SN-38 (NSC673596) were obtained from the National Cancer Institute (NCI) Developmental Therapeutics Program Chemical Repository (32). The FDA-approved anticancer drug set is available from the Developmental Therapeutics Program at https://dtp.cancer.gov/organization/dscb/obtaining/available plates.htm. […] The stock solutions were prepared in dimethyl sulfoxide (DMSO, Sigma-Aldrich, St. Louis, MO, cat. D2650), except for the platinum compounds which were prepared in saline (Quality Biological, Gaithersburg, MD, cat. 114-055-101), at 800-fold the tested concentration and stored at -70 degrees C prior to their use. All drugs and investigational agents were tested over a range starting from a high concentration at or near the clinical Cmax and decreasing in half-log increments. If the clinical Cmax for an agent had not been determined, the highest concentration tested was 10 microM (Table 1).
Cell Culture. All cells were maintained in an incubator at 37 degrees C and 5% CO2 with 95% humidity. The PDC lines were cultured according to standard operating procedures established by the NCI PDMR (https://pdmr.cancer.gov). Briefly, all PDCs were thawed and cultured in Matrigel-coated flasks prepared with a working solution of 1X Ham's F-12 nutrient mix, without supplementation (Invitrogen, Waltham, MA, cat. 11765054), 100 U/mL penicillin-streptomycin (Invitrogen, cat. 15140122), and 2.5% Matrigel (Corning Inc., Corning, NY, cat. 354248) for the first three passages. All PDCs were cultured in complete DMEM/F-12 media containing advanced DMEM/F-12 (Invitrogen, cat. 12634028), 4.9% defined fetal bovine serum, heat inactivated (HyClone Laboratories Inc., Logan, UT, cat. SH30070.03HI), 389 ng/mL hydrocortisone (Sigma-Aldrich, cat. H4001), 9.7 ng/mL human EGF recombinant protein (Invitrogen, cat. PHG0313), 23.4 microg/mL adenine (Sigma-Aldrich, cat. A2786), 97.3 U/mL penicillin-streptomycin (Invitrogen, cat. 15140122), 1.9 mM L-glutamine (Invitrogen, cat. 25030081), and 9.7 microM Y-27632 dihydrochloride (Tocris Bioscience, Bristol, United Kingdom, cat. 1254). The PDCs were cultured in complete DMEM/F12 media without 10 microM Y-27632 dihydrochloride for at least two passages prior to the screen. The established cell lines NCI-H1341 and […] were cultured in DMEM/F-12, HEPES (Invitrogen, cat. 11330032), 5% defined fetal bovine serum (HyClone Laboratories Inc., cat. SH30070.03), ITS premix universal culture supplement [insulin (5 microg/mL), transferrin (5 microg/mL), and selenious acid (5 ng/mL)] […]

Several values for one entry are separate records, joined by “and”; a condition that tells them apart may be missing. Identical values can stand only once.
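Further: luminescence taken as a proxy for viable cell amount.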
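Wherever viability, T/C is given: percent of DMSO vehicle control where 100% means growth equal to vehicle.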

For orientation: viability, T/C means the ratio of treated to control. In general, IC50 refers to the midpoint of a concentration-inhibition curve. Take `Cn1ncnc1C1c2n[nH]c(=O)c3cc(F)cc(c23)NC1c1ccc(F)cc1` (stereo not drawn): the IC50 was over 0.1 µM. In addition, the viability, T/C (compound 0.000316 µM) is 97.7% and 91.1% and 110%. Moreover, the viability, T/C (compound 0.001 µM) was 106% and 103% and 98.6%. The viability, T/C (compound 0.00316 µM) is 96.4% and 111% and 102%. The viability, T/C (compound 0.01 µM) is 94% and 97.9% and 89.2%. Besides, the viability, T/C (compound 0.0316 µM) is 107% and 106% and 95.7%. For the same molecule, where the note is “compound 0.1 µM”, the viability, T/C is 86.6% and 102% and 90%.
For the molecule `NS(=O)(=O)OCC1CC(n2ccc3c(NC4CCc5ccccc54)ncnc32)CC1O` (stereo not drawn), the half-inhibitory concentration (IC50) was 5.66 µM and 8.9 µM and 5.36 µM. For the same molecule, the viability, T/C (compound 0.0316 µM) was 94.3% and 100% and 101%. In addition, under “compound 0.1 µM”, the viability, T/C is 105% and 96.8% and 99.1%. In addition, the viability, T/C (compound 0.316 µM) is 107% and 102% and 97.8%. Further, for the setting “compound 1 µM”, the viability, T/C was 89.2% and 103% and 86.7%. Where the note is “compound 3.16 µM”, the viability, T/C is 65.2% and 76.8% and 62.9%. In addition, the viability, T/C (compound 10 µM) is 35.8% and 47% and 34.9%.
`Nc1ccccc1NC(=O)c1ccc(CNC(=O)OCc2cccnc2)cc1`: the IC50 was 1.16 µM and 0.92 µM and 0.523 µM. For the same molecule, where the note is “compound 0.0316 µM”, the viability, T/C is 90.9% and 98.6% and 92.2%. Also, where the note is “compound 0.1 µM”, the viability, T/C was 105% (2×) and 83.9%. For the same molecule, the viability, T/C (compound 0.316 µM) is 94.5% and 81.1% and 70.5%. For the same molecule, where the note is “compound 1 µM”, the viability, T/C was 55.2% and 47.8% and 24.5%. Further, the viability, T/C (compound 3.16 µM) was 10.7% and 14.8% and 2.77%. Moreover, the viability, T/C (compound 10 µM) is 0.41% and 1.49% and 0.42%.
As to `Nc1ccn(C2OC(CO)C(O)C2(F)F)c(=O)n1` (stereo not drawn), the IC50 is under 0.0316 µM. Moreover, the viability, T/C (compound 0.0316 µM) was 38% and 42% and 41.4%. Also, under “compound 0.1 µM”, the viability, T/C was 37.1% and 44.8% and 35.2%. The viability, T/C (compound 0.316 µM) was 35.5% and 47.5% and 34.7%. In addition, for the setting “compound 1 µM”, the viability, T/C was 32.2% and 38.6% and 33.6%. Where the note is “compound 3.16 µM”, the viability, T/C was 26.9% and 34.3% and 30.5%. Moreover, under “compound 10 µM”, the viability, T/C was 20.3% and 28.3% and 21.4%.
On to `Nc1ncn(C2CC(O)C(CO)O2)c(=O)n1` (stereo not drawn), for which the IC50 was over 1 µM. For the same molecule, for the setting “compound 0.00316 µM”, the viability, T/C is 101% (2×) and 107%. For the same molecule, where the note is “compound 0.01 µM”, the viability, T/C was 102% (2×) and 103%. For the same molecule, the viability, T/C (compound 0.0316 µM) was 107% and 91.4% and 87.8%. Besides, the viability, T/C (compound 0.1 µM) was 88.2% and 98.2% and 82.9%. Moreover, under “compound 0.316 µM”, the viability, T/C is 99.3% and 80.2% and 89.1%. Where the note is “compound 1 µM”, the viability, T/C is 80% and 86.7% and 87.6%.
As for `Nc1ncn(C2CC(O)C(CO)S2)c(=O)n1` (stereo not drawn), the IC50 was over 0.3 µM. Also, the viability, T/C (compound 0.000949 µM) is 103% and 105% and 108%. Besides, the viability, T/C (compound 0.003 µM) is 92.8% and 98.3% and 109%. Further, for the setting “compound 0.00949 µM”, the viability, T/C was 95.4% and 103% and 105%. Also, the viability, T/C (compound 0.03 µM) was 99.9% and 97.8% and 99.8%. Moreover, the viability, T/C (compound 0.0949 µM) was 113% (2×) and 107%. Where the note is “compound 0.3 µM”, the viability, T/C is 97.1% and 96.6% and 98.7%.
On to `O=C(C=Cc1cccc(S(=O)(=O)Nc2ccccc2)c1)NO`, for which the IC50 is 0.966 µM and 0.835 µM and 0.827 µM. Also, where the note is “compound 0.0316 µM”, the viability, T/C is 101% and 111% and 110%. The viability, T/C (compound 0.1 µM) was 111% and 119% and 116%. For the same molecule, where the note is “compound 0.316 µM”, the viability, T/C is 94% and 91.7% and 82.7%. In addition, the viability, T/C (compound 1 µM) was 48.1% and 42% and 45.8%. Besides, the viability, T/C (compound 3.16 µM) is 12% and 11.7% and 7.36%. Moreover, where the note is “compound 10 µM”, the viability, T/C was 1.95% and 2.42% and 1.39%.
With `O=C(C=Cn1cnc(-c2cc(C(F)(F)F)cc(C(F)(F)F)c2)n1)NNc1cnccn1`, the 50% inhibitory concentration (IC50) is 0.215 µM and 0.109 µM and 0.0606 µM. Under “compound 0.00949 µM”, the viability, T/C is 84.1% and 93.9% and 79.2%. For the same molecule, the viability, T/C (compound 0.03 µM) is 83.7% and 79.7% and 62.9%. For the same molecule, the viability, T/C (compound 0.0949 µM) was 55.5% and 52% and 41.8%. In addition, the viability, T/C (compound 0.3 µM) is 48.2% and 37.7% and 35.7%. For the same molecule, where the note is “compound 0.949 µM”, the viability, T/C was 40.9% and 39.8% and 39.1%. Also, the viability, T/C (compound 3 µM) was 31.4% and 35.3% and 32.7%.
Regarding `O=C(c1cc(Cc2n[nH]c(=O)c3ccccc23)ccc1F)N1CCN(C(=O)C2CC2)CC1`, the IC50 is over 10 µM. Also, the viability, T/C (compound 0.0316 µM) is 98.7% and 113% and 108%. Besides, the viability, T/C (compound 0.1 µM) is 106% and 89.2% and 102%. Further, the viability, T/C (compound 0.316 µM) was 103% and 91.6% and 85.8%. The viability, T/C (compound 1 µM) was 99.9% and 95.1% and 114%. In addition, the viability, T/C (compound 3.16 µM) is 88.3% and 110% and 109%. Further, for the setting “compound 10 µM”, the viability, T/C is 74.2% and 90.4% and 94.5%.
